Key:
Assay type in all cases: in vivo
ICR mice [1] = test: Anti-epilepsy activity, MES test, mouse
Method: (§1) In the MES test (Ref., G. Villetti et al. Neuropharmacology 40 (2001) 866-878), an electrical stimulus (mice: 50 mA, 60 Hz, 0.2 sec, and rats: 150 mA, 60 Hz, 0.2 sec in the test animal) supplied by an 11A Shocker (IITC Life Science Company) was delivered through corneal electrodes. All mice or rats assigned to any electroshock at peak time were treated with each test compound sample which was dissolved in 30% PEG 400 or 20% tween 80 prepared by saline solvent applied orally before the test. […] Three doses of the test sample were administered orally to 9-18 animals (3-6 mice per dose) for evaluating the respective doses at which 50% of the animals were protected from seizure (ED50). The ED50 value (median effective dose) was calculated by Litchfield and Wicoxon log-probit method which is a dose-response relationship. Experimental animals, male ICR mice and male SD rats, were purchased from OrientBio, Samtako, or Nara Biotech, Korea, and housed in cages (4-5 mice or 3 rats per cage) for 4-5 days. The range of mice body weight was between 19 and 25 grams and range of rats body weight was between 100 and 130 grams.

ICR mice [2] = test: Anti-epilepsy activity, scPTZ test, mouse
From the text: In this experiment, each test compound sample was formulated as described in Biological Experimental Example I, and administered intraperitoneally to the test animals (mice; ICR or Rat; SD); Experimental animals, male ICR mice and male SD rats, were purchased from OrientBio or Nara biotech, Korea, and housed 4-5 mice per a cage for 4-5 days. The range of mice body weight was used between 19 and 26 grams and range of rats body weight was used between 100 and 130 grams. After Peak time (0.5, 1, 2 and 4 hr) from the administration, PTZ (Pentylenetetrazol) was administered subcutaneously in the concentration capable of inducing 97% intermittent convulsions (mice: 76-110 mg/kg·bw, 10 μl/g, or rats: 79-110 mg/kg·bw, 2 μl/g). If clonic seizure was not observed for at least 30 minutes in the PTZ administered animal, it can be considered that the test compound has anti-epilepsy activity. The median effective dose (ED50) is determined using 6 animals per a concentration (total three different concen-trations), and calculated by Litchfield and Wicoxon log-probit method which is a dose-response relationship.

SD rats = test: Anti-epilepsy activity, MES test, rat; details: for ED50: Rattus norvegicus, po
Method: as §1

Sprague-Dawley rats [3] = test: Lithium-pilocarpine induced epilepsy test, prevention; details: i.p.
Method: Male Sprague-Dawley rats (purchased from Orient Bio Inc. Korea) of body weight 175-200 grams were used for these studies and 3 rats per cage were housed for 4-5 days. On the day prior to SE, rats received 127 mg/kg lithium chloride (Sigma, St. Louis, Mo., U.S.A.) intraperitoneally (i.p.). Approximately 18-20 h following this treatment, rats were given an i.p. injection of CD97 dose (30-43 mg/kg) pilocarpine (Sigma). An i.p. injection of 2 mg/kg methyl-scopolamine (Sigma) was administered 30 min prior to pilocarpine to block the effects of the muscarinic agonist on peripheral cholinergic receptors. Test drugs were dissolved in 30% PEG 400 or 20% tween80 (Sigma).
The drugs were administered intraperitoneally (i.p.) in a volume of 2 ul/g body weight. Pharmacological effects of all of the test materials were evaluated to compare test groups (n=6) with a control group (n=6). Control group was administered vehicle only. The efficacy was measured 0.5, 1, 2, or 4 hours after the administration of the test material. The time point that the most animals were protected was defined as peak time and the ED50 was determined at peak time. The animals were then transferred to observation cages and observed continuously for 90 min. Seizure was elicited in approximately 95% of the control group. Protection was defined as complete absence of seizure grade 3-5 (Racine scale; Racine, 1972) over the 90-min observation period. The effective dose of the compound necessary to protect 50% of the animals against seizures compared to controls (i.e. ED50) was determined by a curve fitting program (Excel 2007, Microsoft).

Sprague-Dawley rats [4] = test: Antiallodynic activity on Chung model (SNL, spinal nerve ligation); details: orally; for SNL efficacy %: 30 mg/kg
From the text: Male Sprague-Dawley rats (100-130 g, Orient Bio, Korea) were habituated for 1 week before the experiment and allowed free access to food and water throughout the experimentation. Room temperature and humidity were maintained at 24±2 and 50±10%, respectively. The neuropathic surgery (SNL, Spinal nerve ligation) model was done as described in Kim and Chung (1992). Briefly, an animal was put under gaseous anesthesia with isoflurane. The left lumber spinal nerve L5 and L6 were isolated and tightly ligated with 6-0 silk thread. The wound muscle was closed with Catgut® chrom 3/0 thread and skin was closed with Dafilon 3/0 tread. Sham controls were prepared in the same manner with the spinal nerves exposed, but with no ligated L5 and L6 nerves. Preparation of the vehicle controls were identical to the group treated with compound, except for administration of vehicles without compound in the vehicle control group.
Tactile sensitivity (Mechanical allodynia) was evaluated using von Frey monofilaments before and after treatment, and animals were included in the study only if the withdrawal threshold value was less than 4 g. One week after surgery, SNL-operated animals, sham-operated animals and vehicle control animals were tested for tactile sensitivity with von Frey monofilaments 3 trials in each animal. All Animals were placed in a stainless steel mash chamber and habituated for 30 min in the test cage. The tactile sensitivity for the ipsilateral hind paw was measured using the up-and-down method (Dixon, 1980) with seven von Frey monofilaments (0.4, 1, 2, 4, 6, 8, and 15 g) in 3 trials. The tactile sensitivity test was followed by Dixon's method (Dixon, 1980). The 50% paw withdrawal threshold for each paw was calculated using the following formula: [Xth] log=[vFr] log+ky where [vFr] is the force of the last von Frey used, k=0.2249 which is the average interval (in log units) between the von Frey monofilaments, and y is a value that depends upon the pattern of withdrawal responses (Dixon, 1980).
All animals were fasted 18 h before the administration of the compounds. Antiallodynic effect of compounds were evaluated at the three dose, orally administrated in a volume of 5 ul/g, bw in a vehicle of 30% (v/v) PEG 400 or 20% (v/v) Tween 80. The test was performed at the peak time of efficacy after compound administration.
The relative values compared to the sham group (% control) were calculated and shown in Table 3, which show an antiallodynic effect of the test compounds on SNL model in rats.

Sprague-Dawley rats [5] = test: Antiallodynic activity on Complete Freund's Adjuvant (CFA)-induced inflammatory pain model; details: intraperitoneally
Method: Male, Sprague-Dawley rats (210-250 g, Nara Bio, Korea) were habituated for 1 week before CFA injection and allowed free access to food and water throughout the experimentation. Room temperature and humidity were maintained at 24±2 and 50±10%, respectively.
CFA-induced inflammatory pain was induced by the procedure of Nagakura et al. (2003) and Gregory P. et al. (2010) with minor modifications. CFA (sigma, USA) was injected in the right plantar with a 100 ul volume under gaseous anesthesia with isoflurane. Sham controls were injected with 100 ul of saline and preparation of the vehicles without compound in the vehicle control group. Tactile sensitivity (Mechanical allodynia) was evaluated using von Frey monofilaments before and after treatment, and the animals were included in the study only if the withdrawal threshold value was less than 4 g. One week after surgery, CFA-infused treatment animals (n=4-6), sham-operated animals (n=12), and vehicle control animals (n=17) were tested for tactile sensitivity with von Frey monofilaments 3 trials for each animal. All Animals were placed in a stainless steel mesh chamber and habituated for 30 min in the test box. The tactile sensitivity for ipsilateral hind paw was measured using the up-and-down method (Dixon, 1980) with seven von Frey monofilaments (0.4, 1, 2, 4, 6, 8, and 15 g) to 3 trials. Tactile sensitivity test was followed by Dixon's method (Dixon, 1980). The 50% paw withdrawal threshold for each paw was calculated using the following formula: [Xth] log=[vFr] log+ky where [vFr] is the force of the last von Frey used, k=0.2249 which is the average interval (in log units) between the von Frey monofilaments, and y is a value that depends upon the pattern of withdrawal responses (Dixon, 1980).
Antiallodynic effect of compound was evaluated at the dose of 10-60 mg/kg (n=4-6), intraperitoneally administrated in a volume of 5 ul/g bw in a vehicle of 30% (v/v) PEG or 20% (v/v) Tween 80. The test was performed peak time of efficacy (0.5 or 1 hr) after compound administration.
The relative values compared to the sham (% control) were calculated and shown in Table 4, which show an antiallodynic effect of Compound 1 on CFA-induced pain model in rats.

[6] = Rattus norvegicus, ip, read-out: CFA-induced pain model efficacy %
[7] = po, read-out: MES test (po) efficacy %

Compound | MES test (po) Peak time (ICR mice [1]) [h] | MES test (po) Peak time (SD rats) | SNL Peak Time (Sprague-Dawley rats [4]) [h] | SNL efficacy % (Sprague-Dawley rats [4]) | response vs control in vivo at 50 mg/kg (Sprague-Dawley rats [5]; [6]) [%] | CFA-induced pain model Peak Time (Sprague-Dawley rats [5]) [h] | ED50 (SD rats) [mg/kg] | responders at 60 mg/kg (ICR mice [1]; [7]) [%] | further results
C[C@H](OS(N)(=O)=O)[C@@H](O)c1ccccc1Cl [Example 1, (1S, 2S)-1-(2-chlorophenyl)-1-hydroxypropan-2-yl sulfamate] | 2 |  |  |  |  |  |  |  | ED50 (ICR mice [1]; po): 46.9 mg/kg; scPTZ test (ip) Peak time (ICR mice [2]): 0.5 h; ED50 (ICR mice [2]; ip): 76.6 mg/kg
C[C@@H](OS(N)(=O)=O)[C@H](O)c1ccc(Cl)cc1Cl [Example 4, (1R, 2R)-1-(2,4-dichlorophenyl)-1-hydroxypropan-2-yl sulfamate] |  | 4 h |  |  |  |  |  |  | MES test (po) efficacy % (SD rats; 10 mg/kg): 33%; scPTZ test (ip) Peak time (ICR mice [2]): 2 h; scPTZ test (ip) efficacy % (ICR mice [2]; 100 mg/kg): 100(100%)
C[C@@H](OS(N)(=O)=O)[C@H](O)c1cccc(Cl)c1Cl [Example 10, (1R, 2R)-1-(2,3-dichlorophenyl)-1-hydroxypropan-2-yl sulfamate] | 1 |  |  |  |  |  |  |  | responders at 100 mg/kg (ICR mice [1]; po, 100 mg/kg, read-out: MES test (po) efficacy %): 83.3%; Lithium pilocarpine model (pre) peak time (Sprague-Dawley rats [3]): 1 h; Lithium pilocarpine model (pre) efficacy % (Sprague-Dawley rats [3]; 100 mg/kg): 66.6%
C[C@@H](OS(N)(=O)=O)[C@H](O)c1ccccc1F [Example 18, (1R, 2R)-1-(2-fluorophenyl)-1-hydroxypropan-2-yl sulfamate] | 1 | (2 h) | 0.5 | 30(48.2%) | 46.6 | 0.5 | 14.2 |  | ED50 (ICR mice [1]; po): 62 mg/kg
C[C@H](OS(N)(=O)=O)[C@@H](O)c1ccccc1I [Example 19, (1S, 2S)-1-(2-iodophenyl)-1-hydroxypropan-2-yl sulfamate] | 1 |  | 1 |  |  | 1 |  |  | ED50 (Sprague-Dawley rats [4]; Rattus norvegicus, po, at peak time): 44.6 mg/kg; response vs control in vivo at 30 mg/kg (Sprague-Dawley rats [5]; Rattus norvegicus, ip, 30 mg/kg, read-out: CFA-induced pain model efficacy %): 24.3%; responders at 30 mg/kg (ICR mice [1]; po, 30 mg/kg, read-out: MES test (po) efficacy %): 66.6%
C[C@@H](OS(N)(=O)=O)[C@H](O)c1ccccc1I [Example 20, (1R, 2R)-1-(2-iodophenyl)-1-hydroxypropan-2-yl sulfamate] | 1 | (2 h) | 1 | 30(58.7%) | 28.7 | 0.5 | 20.1 | 16.6 | 
CC[C@@H](OS(N)(=O)=O)[C@H](OCOC)c1ccccc1Cl [Example 71, (1R, 2R)-1-(2-chlorophenyl)-1-(methoxymethoxy)butan-2-yl sulfamate] |  |  | 0.5 | 30(31.9%) | 41.9 | 0.5 |  |  | 
COCO[C@H](c1ccccc1F)[C@@H](C)OS(N)(=O)=O [Example 73, (1R, 2R)-1-(2-fluorophenyl)-1-(methoxymethoxy)propan-2-yl sulfamate] | 1 | (4 h) | 1 | 30(31.3%) | 38.5 | 0.5 | 34.8 | 33.3 | 
COCO[C@H](c1ccccc1I)[C@@H](C)OS(N)(=O)=O [Example 75, (1R, 2R) 1-(2-iodophenyl)-1-(methoxymethoxy)propan-2-yl sulfamate] | 1 | (2 h) | 1 | 30(64.9%) | 28.1 | 0.5 | 4.2 | 33.3 | 

— patent publication US10351519B2, “Sulfamate derivative compounds, processes for preparing them and their uses” (BIO-PHARM SOLUTIONS CO., LTD., priority 2016, dated 2019)
